{
  "source": "patent US11612163B2",
  "about": "“Stabilization of whole blood samples” (The General Hospital Corporation, priority 2014, dated 2023)",
  "type_in_all_cases": "cell-based, human",
  "key": {"[1]": {"tested_on": "neutrophils", "test": "Apoptosis/necrosis inhibitors as preservatives of isolated neutrophils", "protocol": "Evaluation of apoptosis and necrosis inhibitors as neutrophil preservatives. Neutrophils were isolated by negative selection from healthy donor whole blood using the recommended protocol and reagents from the Human Neutrophil Enrichment Kit (StemCell Technologies; Vancouver, British Columbia, Canada). Yield was determined by counting particles from 8-30 μm in diameter using a Coulter Counter Z1 (Beckman Coulter; Brea, Calif.). Neutrophils were stored in IMDM+20% FBS and were either untreated (control) or treated with 1.25 μL/mL DMSO (Sigma-Aldrich; St. Louis, Mo.), 5 μM Q-VD-OPh (Apex Bio; Houston, Tex.), 50 μM Necrostatin-1 (Cayman Chemical; Ann Arbor, Mich.), or 50 μM Boc-D-FMK Apex Bio; Houston, Tex.). Matched samples were processed immediately after isolation and after 24, 48, 72, and 96 hours of storage at 21° C. Samples were stained with R-phycoerythrin-conjugated Annexin V, SYTOX Green, Hoechst 33342 (all Life Technologies; Carlsbad, Calif.), and allophycocyanin-conjugated CD45 (Huntington Valley) and imaged using an ImageStream^X Mk. II Imaging Flow Cytometer (Amnis Corporation; Seattle, Wash.)."}, "[2]": {"tested_on": "neutrophils", "test": "Neutrophil migration toward fMLP gradient (microfluidic device)", "protocol": "To determine whether neutrophils stored under these conditions were still capable of migrating toward an fMLP gradient, we utilized a microfluidic device previously developed for this purpose. Briefly, fMLP, a neutrophil chemoattractant, is added to two outer chambers. The outer chambers are connected to an inner chamber through a series of channels, creating a gradient. The inner chamber was then filled with neutrophils. Freshly isolated neutrophils were immediately evaluated to establish a time 0 migratory response, then the preserved neutrophils were examined after 72 and 96 h ambient storage for comparison."}, "[3]": {"tested_on": "platelets", "test": "Platelet activation surface markers by imaging flow cytometry", "settings": "dosages 0.01-0.5 ug/mL, 20 min at 4 or 22° C.", "protocol": "Platelet inhibitors used include: Tirofiban (Sigma), Eptifibatide (Tocris), Clopidogrel (Sigma), KF38789 (Tocris). In all experimental conditions that involved treatment with platelet inhibitors (e.g., tirofiban, eptifibatide, etc.), these compounds were added to blood samples and mixed by gentle rocking for 10 minutes before the sample was processed for other assays or storage. The addition of EDTA, unless otherwise stated, occurred 15 minutes prior to the assay (i.e., EDTA was not present during sample storage).\nPlatelet activation and cell viability were determined using the Image Stream Mark II imaging flow cytometer (Amnis Corporation) equipped with a 40× objective and the 405, 488, 642 nm lasers. For the platelet activation panel, 1 μl of whole blood was combined with PBS and fluorescently labeled antibodies as follows; Pacific Blue conjugated CD41 (1:150; clone HIP8; BioLegend), FITC conjugated PAC-1 (1:10; clone PAC-1 (RUO (GMP)); BD Pharmingen), PE conjugated CD62P (1:100; clone AK-4; BD Pharmingen), APC conjugated CD63 (1:10; clone H5C6; Biolegend), PE/Cy7 conjugated CD45 (1:100; clone HI30; Abcam). […]"}, "[4]": {"tested_on": "neutrophil elastase", "test": "Quantification of neutrophil elastase (NETosis)", "settings": "fresh whole blood stimulated, positive control for NETs, n=7", "protocol": "Blood samples were mixed gently, warmed to 37° C. for four hours for the release of NETs contents into the plasma, and diluted with PBS to a final blood volume fraction of 25% before centrifugation at 2000×g for 5 minutes. The supernatant was then carefully transferred to a new centrifuge tube and stored at −80° C. for further processing. The level of neutrophil elastase was quantified using the Neutrophil Elastase Activity Assay Kit (Cayman Chemical Company) according to manufacturer's protocol, using a SpectraMax M5 spectrometer (Molecular Devices). As a positive control for NETosis, phorbol myristate acetate (100 nM) was added to fresh whole blood prior to incubation."}},
  "note": "Entries after “also recorded” stand apart in the source; their conditions may differ.",
  "data": [
    {"molecule": "CC(C)[C@H](NC(=O)c1ccc2ccccc2n1)C(=O)N[C@@H](CC(=O)O)C(=O)COc1c(F)cccc1F", "note": "[Q-VD-OPh, (3S)-5-(2,6-difluorophenoxy)-3-[[(2S)-3-methyl-2-(quinoline-2-carbonylamino)butanoyl]amino]-4-oxopentanoic acid]", "values": [
      {"measurement": "CD45 biomarker expression of neutrophils", "setting": "[1]; 5 μM, 96 h ambient storage", "value": "effectively preserved CD45 biomarker expression"},
      {"measurement": "apoptosis inhibition in neutrophils", "setting": "[1]; 5 μM, IMDM+20% FBS, ambient storage up to 96 h", "value": "highly effective at apoptosis inhibition"},
      {"measurement": "stability of treated neutrophils under ambient storage", "setting": "[1]; ambient storage conditions", "value": "72 to 96", "unit": "h"},
      {"measurement": "migratory response to fMLP", "setting": "[2]; after 72 h ambient storage, vs freshly isolated neutrophils", "value": "comparable to that of the freshly isolated neutrophils; also recorded: nearly indistinguishable from the migratory response of the freshly isolated neutrophils"},
      {"measurement": "migratory speed toward fMLP gradient", "setting": "[2]; after ambient storage, vs fresh neutrophils", "value": "identical to the fresh neutrophils; also recorded: maintained comparable speed to freshly isolated neutrophils"}
    ]},
    {"molecule": "CCCCS(=O)(=O)N[C@@H](Cc1ccc(OCCCCC2CCNCC2)cc1)C(=O)O", "note": "[Tirofiban]", "values": [
      {"measurement": "platelet activation (PAC-1, CD62/p-selectin) of cold treated platelets", "setting": "[3]", "value": "minimally activated"}
    ]},
    {"molecule": "CCCCCCCCCCCCCC(=O)O[C@@H]1[C@@H](C)[C@@]2(O)[C@@H](C=C(CO)C[C@]3(O)C(=O)C(C)=C[C@@H]23)[C@@H]2C(C)(C)[C@]12OC(C)=O", "note": "[phorbol myristate acetate]", "values": [
      {"measurement": "neutrophil elastase level", "setting": "[4]", "value": "81.4±64.4", "unit": "mU/mL"}
    ]}
  ]
}
